For this experiment, the target named is T1, collagenase.
T1 construct: gene colG
As to the kind of experiment: fluorometric collagenase inhibitor screening kit. Format: biochemical. The conditions noted are these: 15 min preincubation at 25 °C; kinetic read 60 min at 37 °C; ex 490 / em 520 nm.

Each structure is given as a SMILES string. In brackets after ≈: the same amount, converted by molar mass.

As a reminder, the IC50 is the concentration at which inhibition is half-maximal. Lower therefore signals inhibition by little substance.

`Cc1cnc(NC(=O)C2=C(O)c3ccccc3S(=O)(=O)N2C)s1` [Meloxicam] returned an IC50 of 38.48 µg/mL (≈ 110 µM).

Values taken from article PMC10708113, “Comparative Study of Essential Oils from Different Organs of Syzygium cumini (Pamposia) Based on GC/MS Chemical Profiling and In Vitro Antiaging Activity” (Molecules, 2023).
